Tested on: PGY-sRNA-26
Test: In vivo delivery study of lipid-nucleic acid mixture (oral gavage, RT-qPCR of PGY-sRNA-26 in tissues)
Set-up: species or system mouse
Conditions: for delivery efficacy over each tissue and blood tested (broad-spectrum delivery): all tissues and blood tested; for oral delivery of single-stranded sRNA nucleic acids into mouse intestinal tissue: intestine
Summary of the method: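 C57BL/6 male mice (~6 weeks, 20-24 g), fasted 12 h, were gavaged with 10 nmol 3′-methylated PGY-sRNA-26 mixed with 100 μg lipid (heated 90° C. 15 min), versus saline or free sRNA (n=4 each). After 12 h, blood and tissues were Trizol-extracted; sRNA quantified by stem-loop RT-qPCR relative to U6.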

[1] = C57BL/6 mice, gavage, 100 μg lipid: 10 nmol PGY-sRNA-26, 12 hours
[2] = C57BL/6 mice, gavage, 100 μg lipid: 10 nmol PGY-sRNA-26, 12 hours, blood
[3] = C57BL/6 mice, gavage, 100 μg lipid: 10 nmol PGY-sRNA-26, 12 hours, femur

Structure (SMILES) | delivery efficacy over each tissue and blood tested (broad-spectrum delivery) [1] | oral delivery of single-stranded sRNA nucleic acids into mouse blood [2] | oral delivery of single-stranded sRNA nucleic acids into mouse brain tissue [1] | oral delivery of single-stranded sRNA nucleic acids into mouse femur [3] | oral delivery of single-stranded sRNA nucleic acids into mouse heart tissue [1] | oral delivery of single-stranded sRNA nucleic acids into mouse intestinal tissue [1] | oral delivery of single-stranded sRNA nucleic acids into mouse kidney tissue [1] | oral delivery of single-stranded sRNA nucleic acids into mouse liver tissue [1] | oral delivery of single-stranded sRNA nucleic acids into mouse lung tissue [1] | oral delivery of single-stranded sRNA nucleic acids into mouse spleen tissue [1] | oral delivery of single-stranded sRNA nucleic acids into mouse stomach tissue [1] | oral delivery of single-stranded sRNA nucleic acids into mouse blood (mouse, in vivo, po) | oral delivery of single-stranded sRNA nucleic acids into mouse femur (mouse, in vivo, po)
C[C@H](CCC(=O)O)[C@H]1CC[C@H]2[C@@H]3[C@@H](O)C[C@@H]4C[C@H](O)CC[C@]4(C)[C@H]3CC[C@]12C [Lipid 592] | exhibited the best delivery efficacy | can effectively orally deliver | can effectively orally deliver | can effectively orally deliver | can effectively orally deliver | can effectively orally deliver | can effectively orally deliver | can effectively orally deliver | can effectively orally deliver | can effectively orally deliver | can effectively orally deliver | – | –
C[C@H](CCC(=O)O)[C@H]1CC[C@H]2[C@@H]3CC[C@@H]4C[C@H](O)CC[C@]4(C)[C@H]3C[C@H](O)[C@]12C [Lipid 581] | exhibited the best delivery efficacy | can effectively orally deliver | can effectively orally deliver | can effectively orally deliver | can effectively orally deliver | can effectively orally deliver | can effectively orally deliver | can effectively orally deliver | can effectively orally deliver | can effectively orally deliver | can effectively orally deliver | – | –
C[C@]12CCC(=O)C[C@@H]1CC[C@@H]1[C@@H]2CC[C@@]2(C)[C@H]1CC[C@]2(C)O [Lipid 539] | exhibited the best delivery efficacy | can effectively orally deliver | can effectively orally deliver | can effectively orally deliver | can effectively orally deliver | can effectively orally deliver | can effectively orally deliver | can effectively orally deliver | can effectively orally deliver | can effectively orally deliver | can effectively orally deliver | – | –
C[C@]12C=CC(=O)C=C1CC[C@@H]1[C@@H]2C(=O)C[C@@]2(C)[C@H]1CC[C@]2(O)C(=O)CO [Lipid 564] | – | can effectively orally deliver | can effectively orally deliver | can effectively orally deliver | can effectively orally deliver | can effectively orally deliver | can effectively orally deliver | can effectively orally deliver | can effectively orally deliver | can effectively orally deliver | can effectively orally deliver | – | –
C[C@@H]1CC[C@@]2(OC1)O[C@H]1C[C@H]3[C@@H]4CC[C@H]5C[C@@H](O)CC[C@]5(C)[C@H]4CC(=O)[C@]3(C)[C@H]1[C@@H]2C [Lipid 558] | exhibited the best delivery efficacy | can effectively orally deliver | can effectively orally deliver | can effectively orally deliver | can effectively orally deliver | can effectively orally deliver | can effectively orally deliver | can effectively orally deliver | can effectively orally deliver | can effectively orally deliver | can effectively orally deliver | – | –
C[C@]12CCC(=O)C=C1CC[C@@H]1[C@@H]2CC[C@@]2(C)[C@H]1CC[C@]2(C)O [Lipid 546] | exhibited the best delivery efficacy | can effectively orally deliver | can effectively orally deliver | can effectively orally deliver | can effectively orally deliver | can effectively orally deliver | can effectively orally deliver | can effectively orally deliver | can effectively orally deliver | can effectively orally deliver | can effectively orally deliver | – | –
CC(=O)[C@H]1CC[C@H]2[C@@H]3CC=C4C[C@@H](O)CC[C@]4(C)[C@H]3CC[C@]12C [Lipid 590] | exhibited the best delivery efficacy | can effectively orally deliver | can effectively orally deliver | can effectively orally deliver | can effectively orally deliver | can effectively orally deliver | can effectively orally deliver | can effectively orally deliver | can effectively orally deliver | can effectively orally deliver | can effectively orally deliver | – | –
C[C@]12CCC(=O)C=C1CC[C@H]1[C@@H]3CC[C@](O)(C(=O)CO)[C@@]3(C)C[C@H](O)[C@@]12F [Lipid 534] | exhibited the best delivery efficacy | can effectively orally deliver | can effectively orally deliver | can effectively orally deliver | can effectively orally deliver | can effectively orally deliver | can effectively orally deliver | can effectively orally deliver | can effectively orally deliver | can effectively orally deliver | can effectively orally deliver | – | –
C[C@]12CC[C@H]3[C@@H](CCC4=CC(=O)CC[C@@]43C)[C@@H]1CC[C@@H]2O [Lipid 579] | – | – | – | – | – | – | – | – | – | – | – | can effectively orally deliver | can effectively orally deliver
